Data published in patent US10058550B2, “Methods of treating heart failure” (priority 2015, dated 2018).

Biological target: human APJ receptor (Homo sapiens (Human), UniProt P35414)
Experiment: biochemical
Assay type: biochemical
Conditions: read-out: Activity hAPJ SPA EC50 IP
How it was run: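 Agonist-stimulated [35S]GTPγS (0.2 nM) binding was read by SPA after 90 min at room temperature. Buffer: 20 mM HEPES pH 7.5 with 5 mM MgCl2, 200 mM NaCl, 3 μM GDP, 0.1% BSA; membranes were from a stable human APJ CHO line. EC50 values are averages of independent runs, fitted by non-linear regression.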

Chain of human APJ receptor (P35414 whole entry): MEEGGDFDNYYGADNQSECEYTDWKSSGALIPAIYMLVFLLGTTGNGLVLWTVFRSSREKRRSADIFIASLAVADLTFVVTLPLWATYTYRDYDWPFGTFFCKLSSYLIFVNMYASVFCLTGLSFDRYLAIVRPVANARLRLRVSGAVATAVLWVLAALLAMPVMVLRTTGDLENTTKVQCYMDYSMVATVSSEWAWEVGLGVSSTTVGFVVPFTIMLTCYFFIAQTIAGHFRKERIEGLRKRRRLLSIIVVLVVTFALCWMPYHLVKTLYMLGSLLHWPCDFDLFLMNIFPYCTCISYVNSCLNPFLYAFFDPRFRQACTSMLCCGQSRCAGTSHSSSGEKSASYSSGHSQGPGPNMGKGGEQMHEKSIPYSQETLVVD

Structure (SMILES)	EC50
COc1cccc(OC)c1-n1c(NS(=O)(=O)[C@@H](C)[C@@H](OCCO)c2ncc(C)cn2)nnc1-c1cncc(C)c1 (single isomer, unassigned) [Example 409.0, (1S,2S)—N-(4-(2,6-dimethoxyphenyl)-5-(5-methylpyridin-3-yl)-4H-1,2,4-triazol-3-yl)-1-(2-hydroxyethoxy)-1-(5-methylpyrimidin-2-yl)propane-2-sulfonamide or (1R,2R)—N-(4-(2,6-dimethoxyphenyl)-5-(5-methylpyridin-3-yl)-4H-1,2,4-triazol-3-yl)-1-(2-hydroxyethoxy)-1-(5-methylpyrimidin-2-yl)propane-2-sulfonamide]	29 nM
COc1cccc(-c2nnc(NS(=O)(=O)C[C@H](OC)c3ccc(C#N)cc3S(C)(=O)=O)n2-c2c(OC)cccc2OC)n1 (single isomer, unassigned) [Example 485.0, (2R)-2-(4-cyano-2-(methylsulfonyl)phenyl)-N-(4-(2,6-dimethoxyphenyl)-5-(6-methoxy-2-pyridinyl)-4H-1,2,4-triazol-3-yl)-2-methoxyethanesulfonamide or (2S)-2-(4-cyano-2-(methylsulfonyl)phenyl)-N-(4-(2,6-dimethoxyphenyl)-5-(6-methoxy-2-pyridinyl)-4H-1,2,4-triazol-3-yl)-2-methoxyethanesulfonamide]	0.098 nM
COc1cccc(-c2nnc(NS(=O)(=O)[C@@H](C)[C@H](OC)c3ncc(C)cn3)n2-c2ccc3ccccc3c2)n1 [Example 53.0, (1R,2S)-1-methoxy-N-(5-(6-methoxy-2-pyridinyl)-4-(2-naphthalenyl)-4H-1,2,4-triazol-3-yl)-1-(5-methyl-2-pyrimidinyl)-2-propanesulfonamide]	53 nM
COc1cccc(-c2nnc(NS(=O)(=O)[C@@H](C)[C@H](OC)c3ccc(Cl)cn3)n2C2CCOCC2)n1 [Example 841.0, (1R,2S)-1-(5-chloro-2-pyridinyl)-1-methoxy-N-(5-(6-methoxy-2-pyridinyl)-4-(tetrahydro-2H-pyran-4-yl)-4H-1,2,4-triazol-3-yl)-2-propanesulfonamide]	8.6 nM
COc1cccc(OC)c1-n1c(NS(=O)(=O)[C@@H](C)[C@H](OC)c2ncccn2)nnc1-c1cncc(C)c1 [Example 250.0, (1R,2S)-N-(4-(2,6-dimethoxyphenyl)-5-(5-methyl-3-pyridinyl)-4H-1,2,4-triazol-3-yl)-1-methoxy-1-(2-pyrimidinyl)-2-propanesulfonamide]	2.8 nM
COc1cc(C)cc(-c2nnc(NS(=O)(=O)[C@@H](C)[C@H](C)c3ncc(F)cn3)n2-c2c(OC)cccc2OC)n1 [Example 177.0, (2S,3R)-N-(4-(2,6-dimethoxyphenyl)-5-(6-methoxy-4-methylpyridin-2-yl)-4H-1,2,4-triazol-3-yl)-3-(5-fluoropyrimidin-2-yl)butane-2-sulfonamide]	0.12 nM
COc1cncc(-c2nnc(NS(=O)(=O)[C@@H](C)[C@H](C)c3ncc(C)cn3)n2-c2c(OC)cccc2OC)c1 [Example 86.0, (2S,3R)-N-(4-(2,6-dimethoxyphenyl)-5-(5-methoxypyridin-3-yl)-4H-1,2,4-triazol-3-yl)-3-(5-methylpyrimidin-2-yl)butane-2-sulfonamide]	1.3 nM
COc1cccc(OC)c1-n1c(NS(=O)(=O)[C@@H](C)[C@H](C)c2ncc(C)cn2)nnc1-c1cccc(C)n1 [Example 87.0, (2S,3R)-N-(4-(2,6-dimethoxyphenyl)-5-(6-methylpyridin-2-yl)-4H-1,2,4-triazol-3-yl)-3-(5-methylpyrimidin-2-yl)butane-2-sulfonamide]	0.4 nM
COc1cccc(OC)c1-n1c(NS(=O)(=O)[C@@H](C)[C@H](OC)c2ncc(C)cn2)nnc1-c1ccnc(C)c1 [Example 104.0, (1R,2S)-N-(4-(2,6-dimethoxyphenyl)-5-(2-methylpyridin-4-yl)-4H-1,2,4-triazol-3-yl)-1-methoxy-1-(5-methylpyrimidin-2-yl)propane-2-sulfonamide]	2.4 nM
COc1cccc(-c2nnc(NS(=O)(=O)[C@H](C)[C@@H](C)c3ncc(C)cn3)n2-c2c(OC)cccc2OC)n1 [Example 314.0, (2R,3S)—N-(4-(2,6-dimethoxyphenyl)-5-(6-methoxy-2-pyridinyl)-4H-1,2,4-triazol-3-yl)-3-(5-methyl-2-pyrimidinyl)-2-butanesulfonamide]	3.4 nM
COc1cccc(OC)c1-n1c(NS(=O)(=O)[C@@H](C)[C@H](OC)c2ncc(C)cn2)nnc1-c1cccc(C)n1 [Example 103.0, (1R,2S)-N-(4-(2,6-dimethoxyphenyl)-5-(6-methylpyridin-2-yl)-4H-1,2,4-triazol-3-yl)-1-methoxy-1-(5-methylpyrimidin-2-yl)propane-2-sulfonamide]	0.51 nM
COc1cccc(-c2nnc(NS(=O)(=O)[C@@H](C)[C@H](C)c3ncc(C)cn3)n2-c2c(OC)cccc2OC)n1 [Example 313.0, (2S,3R)—N-(4-(2,6-dimethoxyphenyl)-5-(6-methoxy-2-pyridinyl)-4H-1,2,4-triazol-3-yl)-3-(5-methyl-2-pyrimidinyl)-2-butanesulfonamide]	0.3 nM
COc1cccc(OC)c1-n1c(NS(=O)(=O)[C@H](C)[C@H](OC(C)C)c2cnc(C)cn2)nnc1-c1cncc(C)c1 (single isomer, unassigned) [Example 747.0, (1R,2R)-N-(4-(2,6-dimethoxyphenyl)-5-(5-methylpyridin-3-yl)-4H-1,2,4-triazol-3-yl)-1-isopropoxy-1-(5-methylpyrazin-2-yl)propane-2-sulfonamide or (1S,2S)-N-(4-(2,6-dimethoxyphenyl)-5-(5-methylpyridin-3-yl)-4H-1,2,4-triazol-3-yl)-1-isopropoxy-1-(5-methylpyrazin-2-yl)propane-2-sulfonamide]	7.6 nM
COc1cccc(OC)c1-n1c(NS(=O)(=O)[C@@H](C)[C@@](C)(F)c2ncc(C#N)cn2)nnc1-c1cncc(C)c1 (single isomer, unassigned) [Example 538.0]	4.5 nM
COc1cccc(OC(F)F)c1-n1c(NS(=O)(=O)[C@@H](C)[C@H](OC)c2ncc(C)cn2)nnc1-c1cccnc1 [Example 667.0, (1R,2S,P)-N-(4-(2-(difluoromethoxy)-6-methoxyphenyl)-5-(3-pyridinyl)-4H-1,2,4-triazol-3-yl)-1-methoxy-1-(5-methyl-2-pyrimidinyl)-2-propanesulfonamide and (1R,2S,M)-N-(4-(2-(difluoromethoxy)-6-methoxyphenyl)-5-(3-pyridinyl)-4H-1,2,4-triazol-3-yl)-1-methoxy-1-(5-methyl-2-pyrimidinyl)-2-propanesulfonamide]	2.6 nM
CCO[C@@H](c1cnc(C)cn1)[C@@H](C)S(=O)(=O)Nc1nnc(-c2cncc(C)c2)n1-c1c(OC)cccc1OC (single isomer, unassigned) [Example 565.0, (1S,2R)—N-(4-(2,6-dimethoxyphenyl)-5-(5-methyl-3-pyridinyl)-4H-1,2,4-triazol-3-yl)-1-ethoxy-1-(5-methyl-2-pyrazinyl)-2-propanesulfonamide or (1R,2S)—N-(4-(2,6-dimethoxyphenyl)-5-(5-methyl-3-pyridinyl)-4H-1,2,4-triazol-3-yl)-1-ethoxy-1-(5-methyl-2-pyrazinyl)-2-propanesulfonamide]	100 nM
COc1cccc(-c2nnc(NS(=O)(=O)[C@@H](C)[C@H](OC)c3ncc(Cl)cn3)n2C2CCOCC2)n1 [Example 836.0, (1R,2S)-1-(5-chloro-2-pyrimidinyl)-1-methoxy-N-(5-(6-methoxy-2-pyridinyl)-4-(tetrahydro-2H-pyran-4-yl)-4H-1,2,4-triazol-3-yl)-2-propanesulfonamide]	2.9 nM
COc1cccc(OC)c1-n1c(NS(=O)(=O)[C@@H](C)[C@H](OC)c2ncc(C)cn2)nnc1-c1ccncc1 [Example 102.0, (1R,2S)-N-(4-(2,6-dimethoxyphenyl)-5-(pyridin-4-yl)-4H-1,2,4-triazol-3-yl)-1-methoxy-1-(5-methylpyrimidin-2-yl)propane-2-sulfonamide]	18 nM
COc1cccc(-c2nnc(NS(=O)(=O)[C@@H](C)[C@H](OC)c3ncc(C)cn3)n2-c2cc(Cl)cc(Cl)c2)n1 [Example 68.0, (1R,2S)-N-(4-(3,5-dichlorophenyl)-5-(6-methoxy-2-pyridinyl)-4H-1,2,4-triazol-3-yl)-1-methoxy-1-(5-methyl-2-pyrimidinyl)-2-propanesulfonamide]	60 nM
COc1cnc([C@@H](O)[C@H](C)S(=O)(=O)Nc2nnc(-c3cncc(C)c3)n2-c2c(OC)cccc2OC)cn1 (single isomer, unassigned) [Example 308.0]	76 nM
COc1cccc(OC)c1-n1c(NS(=O)(=O)[C@@H](C)Cc2ncc(F)cn2)nnc1-c1cccc(C)n1 (mixture of isomers) [Example 618.0, (S)-N-(4-(2,6-dimethoxyphenyl)-5-(6-methylpyridin-2-yl)-4H-1,2,4-triazol-3-yl)-1-(5-fluoropyrimidin-2-yl)propane-2-sulfonamide and (R)-N-(4-(2,6-dimethoxyphenyl)-5-(6-methylpyridin-2-yl)-4H-1,2,4-triazol-3-yl)-1-(5-fluoropyrimidin-2-yl)propane-2-sulfonamide]	5.4 nM
COc1cccc(OC)c1-n1c(NS(=O)(=O)CCc2ccc(Cl)cc2)nnc1-c1ccccn1 [Example 368.0, 2-(4-chlorophenyl)-N-(4-(2,6-dimethoxyphenyl)-5-(2-pyridinyl)-4H-1,2,4-triazol-3-yl)ethanesulfonamide]	59 nM
COc1cccc(OC)c1-n1c(NS(=O)(=O)[C@@H](C)[C@H](O)c2nc(C)c(C)s2)nnc1-c1cncc(C)c1 (single isomer, unassigned) [Example 293.0]	13 nM
COc1cccc(OC)c1-n1c(NS(=O)(=O)[C@@H](C)[C@H](C)c2ncc(F)cn2)nnc1-c1cncc(C)c1 (single isomer, unassigned) [Example 236.0]	100 nM
